Results on five molecules are retold here after article PMC9968691, “Perfluoroalkyl substances (PFASs) are substrates of the renal human organic anion transporter 4 (OAT4)” (Archives of Toxicology, 2022).

For orientation: Vmax means the top rate of the reaction or transport when substrate is in excess.

The subject of one series is albumin. To be noted: cited from earlier work; for Reported albumin/water partition coefficients: ref Allendorf et al. (2019).
For series [1] the following is noted: cited from earlier work; for Reported half-life in humans: (average) serum half-life, ref Xu et al. (2020) for PFHpA, Olsen et al. (2007), Li et al. (2018), Xu et al. (2020) for PFOA, PFHxS, PFOS, Olsen et al. (2009) for PFBS; for Reported (average) serum half-life in humans: ref Olsen et al. (2009) for PFBS, Xu et al. (2020) for PFHpA.
The target of another series is T1, human URAT1 (Homo sapiens, UniProt Q96S37).
T1 construct: expressed in transfected cells; host or cells: HEK293 cells transduced with recombinant baculovirus (CMV promoter)
T1 sequence (Q96S37 1-553): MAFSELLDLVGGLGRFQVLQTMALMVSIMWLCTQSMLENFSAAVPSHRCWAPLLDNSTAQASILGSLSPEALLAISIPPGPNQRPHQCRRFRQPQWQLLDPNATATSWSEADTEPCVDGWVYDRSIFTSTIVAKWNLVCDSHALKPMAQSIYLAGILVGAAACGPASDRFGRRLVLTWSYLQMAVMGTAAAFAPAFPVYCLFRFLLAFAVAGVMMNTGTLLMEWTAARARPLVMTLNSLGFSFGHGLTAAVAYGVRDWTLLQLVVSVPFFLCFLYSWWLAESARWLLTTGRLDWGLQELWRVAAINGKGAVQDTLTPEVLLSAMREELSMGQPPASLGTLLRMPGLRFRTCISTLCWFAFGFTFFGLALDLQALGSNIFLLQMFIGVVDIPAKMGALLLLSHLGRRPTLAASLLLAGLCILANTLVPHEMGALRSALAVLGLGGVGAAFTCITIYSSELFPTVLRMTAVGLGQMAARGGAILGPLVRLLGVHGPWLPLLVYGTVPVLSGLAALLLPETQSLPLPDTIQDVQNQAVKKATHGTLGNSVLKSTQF
Put plainly: Screening of cellular PFAS accumulation in URAT1-transfected vs control-transfected HEK293 cells (PFAS mixture). The class given is cell-based. As to conditions: yes/no as identified in vitro in this study. The text has this:
(§1) The recombinant baculoviruses that contain the cDNA of human transporters OAT4 and URAT1 downstream of a cytomegalovirus (CMV) promotor were generated as previously described (Smeets et al. [2020]). As a negative control, baculovirus containing the gene for enhanced yellow fluorescence protein (eYFP) was produced similarly. Moreover, transduction of HEK293 cells and uptake assays were essentially performed as previously described (Smeets et al. [2020]). The culture medium was removed and cells were washed with buffer (HBSS plus 10 mM HEPES, pH 7.4). Uptake was initiated by replacing this solution with 150 µL of fresh transport buffer (HBSS (Life Technologies Invitrogen (Carlsbad, CA, USA))-HEPES (Sigma-Aldrich), pH 7.4) supplemented with the PFASs for 10 min. To terminate the reaction, transport buffer was replaced with 400 µL ice-cold HBSS-HEPES buffer containing 0.5% BSA (m/v; Roche Diagnostics GmbH (Mannheim, Germany)), after which the cells were washed twice with ice-cold HBSS-HEPES. Cellular PFAS concentrations were determined based on the method described by Rosenmai et al. ([2018]). Briefly, cells were solubilised in 250 µL lysis buffer and cell lysates were stored in Eppendorf tubes at − 80 °C and defrozen when needed for LC–MS analysis and for quantification of the protein concentration.
(§2) To 50 μL cell lysate, 850 μL methanol (Actu-All Chemicals, Oss, The Netherlands) containing internal standards (^13C4-PFHpA, ^13C4-PFOA, ^13C5-PFNA, ^13C2-PFDA, ^13C3-PFBS, ^18O2-PFHxS and ^13C4-PFOS (Wellington Laboratories, Canada) was added. These dilutions were vortexed well before centrifugation at maximum speed for 10 min at 4 °C. PFAS concentrations in the supernatant were determined using LC–MS/MS analysis. If required, samples were further diluted with methanol and containing internal standards. LC–MS/MS analysis was based on a Shimadzu UHPLC system containing: 2 pumps (LC 20AD xr); column oven (Shimadzu CTO-20AC); pump switch (Shimadzu FCV-11AL); degasser (Shimadzu DGU-20A3); and sample tray holder (Shimadzu SIL-20 AC XR model) (Shimadzu Corporation, Kyoto, Japan). An Acquity BEH-C18 analytical column (50 × 2.1 mm i.d., 1.7 μm, Waters, Milford, MA, USA) was used to separate the PFASs at a column temperature of 35 °C. In addition, a symmetry C18 analytical column (50 × 2.1 mm i.d., 5 µm, Waters, Milford, MA, USA) was used as a guard column, placed between the pump and the injector valve to isolate and delay interferences out of the LC system. The mobile phase consisted of 2 mM ammonium acetate (Merck Millipore, Darmstadt, Germany) in Milli-Q water (prepared using a Milli-Q system with a resistivity of at least 18.2 MΩ cm^−1 (Merck Millipore)) (mobile phase A) and Acetonitrile ULC/MS grade (Actu-All Chemicals, Oss, The Netherlands) (mobile phase B). The injection volume used was 20 μL. The chromatographic gradient was operated at a flow rate of 0.3 mL min^−1 starting from 25% mobile phase B in the first 0.1 min, a linear increase to 100% B in 6 min with a final hold of 2.5 min. The gradient was returned to 25% B within 0.1 min for 3.9 min to equilibrate before the next injection, resulting in a total run of 12.5 min.
(§3) Cellular PFAS content was normalised to cellular protein. To that end, from each cell lysate, 25 µL was used to determine the protein concentration (technical duplicate) using the Pierce BCA Protein Assay Kit (Thermo Scientific, Waltham, MA). First, samples were diluted two times with lysis buffer directly in a 96-wells plate (PS, F-bottom, clear; Greiner Bio-One, Alphen aan de Rijn, The Netherlands), and in each plate, a BSA standard curve (0.05–2 mg mL^−1 in lysis buffer) was included allowing protein quantification of the samples. The manufacturer’s protocol was followed for the subsequent steps and absorbance was measured using a microplate reader (Synergy™ HT BioTek, Winooski, VT) at 562 nm. […]

A further series concerns the target T2, human OAT4 (Homo sapiens, UniProt Q9NSA0).
T2 construct: expressed in transfected cells; host or cells: HEK293 cells transduced with recombinant baculovirus (CMV promoter)
T2 sequence (Q9NSA0 1-550): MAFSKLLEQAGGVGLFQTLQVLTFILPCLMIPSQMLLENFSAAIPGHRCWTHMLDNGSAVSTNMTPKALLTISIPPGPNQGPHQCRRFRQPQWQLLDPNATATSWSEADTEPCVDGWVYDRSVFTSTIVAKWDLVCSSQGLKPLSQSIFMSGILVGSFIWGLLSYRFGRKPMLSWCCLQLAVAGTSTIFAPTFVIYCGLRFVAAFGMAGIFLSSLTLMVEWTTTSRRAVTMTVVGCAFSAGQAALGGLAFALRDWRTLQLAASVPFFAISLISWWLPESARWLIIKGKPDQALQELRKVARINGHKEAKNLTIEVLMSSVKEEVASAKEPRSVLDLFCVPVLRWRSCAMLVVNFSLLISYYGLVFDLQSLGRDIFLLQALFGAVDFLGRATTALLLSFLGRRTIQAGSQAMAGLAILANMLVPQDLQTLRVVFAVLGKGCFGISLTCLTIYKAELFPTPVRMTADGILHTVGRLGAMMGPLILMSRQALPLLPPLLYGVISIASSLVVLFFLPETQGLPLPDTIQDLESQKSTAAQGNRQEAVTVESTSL
Put plainly: Screening of cellular PFAS accumulation in OAT4-transfected vs control-transfected HEK293 cells (PFAS mixture). The class given is cell-based. To be noted: for Transport by OAT4 (cellular PFAS level in OAT4-transfected vs control-transfected cells; substantial = at least twofold higher): PFAS mixture, each 1 µM, 10 min; for OAT4 substrate: yes/no as identified in vitro in this study.
From the text: as §1, §2, §3

Substrate in series [2]: O=S(=O)(O)C(F)(F)C(F)(F)C(F)(F)C(F)(F)C(F)(F)C(F)(F)C(F)(F)C(F)(F)F
The experiment in a line: cells, lysate or membranes. To be noted: other: OAT4-transfected minus control-transfected HEK293 cells, 1 min exposure, 1-300 µM; best-fit value (standard error); pH 7.4.

Substrate in series [3]: O=C(O)C(F)(F)C(F)(F)C(F)(F)C(F)(F)C(F)(F)C(F)(F)C(F)(F)C(F)(F)F
The experiment in a line: cells, lysate or membranes. To be noted: other: OAT4-transfected minus control-transfected HEK293 cells, 1 min exposure, 1-300 µM; best-fit value (standard error); pH 7.4.

Substrate in series [4]: O=C(O)C(F)(F)C(F)(F)C(F)(F)C(F)(F)C(F)(F)C(F)(F)C(F)(F)C(F)(F)C(F)(F)F
Put plainly: cells, lysate or membranes. As to conditions: other: OAT4-transfected minus control-transfected HEK293 cells, 1 min exposure, 1-300 µM; best-fit value (standard error); pH 7.4.

Substrate in series [5]: O=S(=O)(O)C(F)(F)C(F)(F)C(F)(F)C(F)(F)C(F)(F)C(F)(F)F
Put plainly: OAT4-mediated cellular uptake kinetics (Michaelis–Menten) in OAT4-transfected vs control-transfected HEK293 cells. The class given is cell-based, human. As to conditions: other: OAT4-transfected minus control-transfected HEK293 cells, 1 min exposure, 1-300 µM; best-fit value (standard error); pH 7.4.

Substrate in series [6]: O=C(O)C(F)(F)C(F)(F)C(F)(F)C(F)(F)C(F)(F)C(F)(F)F
The series is described as above. The class given is cell-based, human. As to conditions: other: OAT4-transfected minus control-transfected HEK293 cells, 1 min exposure, 1-300 µM; best-fit value (standard error); pH 7.4.

Substrate in series [7]: O=C(O)C(F)(F)C(F)(F)C(F)(F)C(F)(F)C(F)(F)C(F)(F)C(F)(F)F
The description is as above. The class given is cell-based, human. To be noted: other: OAT4-transfected minus control-transfected HEK293 cells, 1 min exposure, 1-300 µM; best-fit value (standard error); pH 7.4.

Entries after “also recorded” stand apart in the source; their conditions may differ. Marks after values point to notes of the source that are not given here.

For `O=S(=O)(O)C(F)(F)C(F)(F)C(F)(F)C(F)(F)F` [PFBS, perfluorobutane sulfonate], in the series on albumin (compared to the other PFASs, ref Allendorf et al. 2019, Gao et al. 2019, Lu et al. 2021), the Binding to albumin entry is “relatively low binding to albumin”. In addition, in series [1], the “Reported half-life in humans” value is 0.07–0.12^d years and the “Reported (average) serum half-life in humans” value was 26 to 44 days. Further, the URAT1 substrate entry on human URAT1 is “No”. Moreover, at human OAT4, the “Transport by OAT4 (cellular PFAS level in OAT4-transfected vs control-transfected cells; substantial = at least twofold higher)” value is given as “rather limited; also recorded: limited transport” and the OAT4 substrate entry is “No”.
Take `O=C(O)C(F)(F)C(F)(F)C(F)(F)C(F)(F)C(F)(F)C(F)(F)C(F)(F)C(F)(F)C(F)(F)F` [PFDA, perfluorodecanoic acid]: the “Reported albumin/water partition coefficients” value with albumin is 4.7 L/kg. The URAT1 substrate result on human URAT1 is listed as “No”. On human OAT4, the “Transport by OAT4 (cellular PFAS level in OAT4-transfected vs control-transfected cells; substantial = at least twofold higher)” value was “substantial transport; also recorded: more than twofold increase” and the OAT4 substrate result is “Yes”.
Turning to `O=C(O)C(F)(F)C(F)(F)C(F)(F)C(F)(F)C(F)(F)C(F)(F)F` [PFHpA, Perfluoroheptanoic acid], the “Reported albumin/water partition coefficients” value in the series on albumin was 4.0 L/kg. Also, in series [1], the “Reported half-life in humans” value is recorded as 0.17^b years and the “Reported (average) serum half-life in humans” value is 62 days. Besides, on human URAT1, the URAT1 substrate result is given as “No”. Besides, on human OAT4, the “Transport by OAT4 (cellular PFAS level in OAT4-transfected vs control-transfected cells; substantial = at least twofold higher)” value was “substantial transport; also recorded: more than twofold increase” and the OAT4 substrate result is given as “Yes”.
Take `O=S(=O)(O)C(F)(F)C(F)(F)C(F)(F)C(F)(F)C(F)(F)C(F)(F)F` [PFHxS, Perfluorohexane sulfonate]: the “Reported half-life in humans” value in [1] is listed as 2.9–8.5^c years. Moreover, the URAT1 substrate result at human URAT1 was “No”. Also, on human OAT4, the “Transport by OAT4 (cellular PFAS level in OAT4-transfected vs control-transfected cells; substantial = at least twofold higher)” value is “substantial transport; also recorded: more than twofold increase” and the OAT4 substrate entry is “Yes”.

B1: human OAT4 (Homo sapiens) (protein)
chain: T2 sequence (Q9NSA0 1-550)
notes: expressed in transfected cells; host or cells: HEK293 cells transduced with recombinant baculovirus (CMV promoter)
Consider B1, for which the Km in series [2] is given as 48 (24) µM; in series [3], 58 (15) µM; in [4], 39 (15) µM; in series [5], 92 (33) µM; in series [6], 60 (15) µM; in [7] it was 47 (15) µM. Besides, the Vmax in [2] was 0.0022 µmol/min/mg; in [3] it was 0.0085 µmol/min/mg; in series [4], 0.006 µmol/min/mg; in [5], 0.0073 µmol/min/mg; in [6] it was 0.0045 µmol/min/mg; in series [7], 0.0045 µmol/min/mg. Also, the Vmax/Km in series [2] stood at 46 µL min^−1 mg protein^−1; in series [3], 147 µL min^−1 mg protein^−1; in series [4], 154 µL min^−1 mg protein^−1; in series [5] it was 79 µL min^−1 mg protein^−1; in [6], 75 µL min^−1 mg protein^−1; in [7], 96 µL min^−1 mg protein^−1.
